Results: ChEMBL document CHEMBL3885861, “Open TG-GATES”

Species on record: Rattus norvegicus
Test: Open TG-GATES - Regimen: Single
Assay type: toxicity, organism-based, Sprague-Dawley
Design: regimen Single, gender Male, age 6 weeks
Details: in vivo, po, route gavage; for TP / gamma-GTP / ALP / AST / BUN / CRE / Ca / Cl / DBIL / GLC / IP / K / LDH / Na / PL / RALB / TBIL / TC / TG: tissue Plasma; for APTT / Bas / Eos / Ht / MCH / MCHC / MCV / Mono / PT / Plat / RBC / Ret / WBC / Fbg: tissue Blood; for KIDNEY_L / KIDNEY_R / KIDNEY_TOTAL: tissue Kidney; for LIVER: tissue Liver
[1] = 200 mg/kg, 3 h, dose level Middle
[2] = 200 mg/kg, 6 h, dose level Middle
[3] = 200 mg/kg, 9 h, dose level Middle
[4] = 200 mg/kg, 24 h, dose level Middle

CC(=O)Nc1nnc(S(N)(=O)=O)s1 [ACETAZOLAMIDE]
TP (60 mg/kg, 24 h, dose level Low): 5.5 g/dL
gamma-GTP (60 mg/kg, 24 h, dose level Low): 1.2 IU/L
TERMINAL_BW [1]: 208.6 g
APTT [1]: 21.4 s
Bas [1]: 0%
Eos [1]: 1%
Ht [1]: 42%
MCH [1]: 21 pg
MCHC [1]: 31.4%
MCV [1]: 66.7 fL
Mono [1]: 2.2%
PT [1]: 16.8 s
Plat [1]: 124.3 x10_4/uL
RBC [1]: 629.8 x10_4/ul
Ret [1]: 8.5%
WBC [1]: 67.2 x10_2/uL
KIDNEY_L [1]: 0.9 g
KIDNEY_R [1]: 0.9 g
KIDNEY_TOTAL [1]: 1.8 g
LIVER [1]: 9.2 g
ALP [1]: 1675.4 IU/L
AST [1]: 71.2 IU/L
BUN [1]: 12.2 mg/dL
CRE [1]: 0.2 mg/dL
Ca [1]: 11.1 mg/dL
Cl [1]: 111.2 meq/L
DBIL [1]: 0 mg/dL
GLC [1]: 186.4 mg/dL
IP [1]: 10.2 mg/dL
K [1]: 3.7 meq/L
LDH [1]: 191.6 IU/L
Na [1]: 140.8 meq/L
PL [1]: 143 mg/dL
RALB [1]: 3.4 g/dL
TBIL [1]: 0.012 mg/dL
TC [1]: 80.4 mg/dL
TP [1]: 6 g/dL
gamma-GTP [1]: 1.2 IU/L
TERMINAL_BW [2]: 207.7 g
APTT [2]: 22.7 s
Bas [2]: 0%
Eos [2]: 1%
Fbg [2]: 356 mg/dL
Ht [2]: 42%
MCH [2]: 21.2 pg
MCHC [2]: 31.2%
MCV [2]: 68 fL
Mono [2]: 2.8%
PT [2]: 16.9 s
Plat [2]: 108.6 x10_4/uL
RBC [2]: 617.6 x10_4/ul
Ret [2]: 8.8%
WBC [2]: 85 x10_2/uL
KIDNEY_L [2]: 1 g
KIDNEY_R [2]: 1 g
KIDNEY_TOTAL [2]: 2 g
LIVER [2]: 8.8 g
ALP [2]: 1625.8 IU/L
AST [2]: 71.2 IU/L
BUN [2]: 11.6 mg/dL
CRE [2]: 0.2 mg/dL
Ca [2]: 11.1 mg/dL
Cl [2]: 113.6 meq/L
DBIL [2]: 0 mg/dL
GLC [2]: 186.8 mg/dL
IP [2]: 9.7 mg/dL
K [2]: 4 meq/L
LDH [2]: 180.8 IU/L
Na [2]: 140 meq/L
PL [2]: 135.8 mg/dL
RALB [2]: 3.4 g/dL
TBIL [2]: 0.024 mg/dL
TC [2]: 84.2 mg/dL
TG [2]: 21.4 mg/dL
TP [2]: 6 g/dL
gamma-GTP [2]: 1.6 IU/L
TERMINAL_BW [3]: 200 g
APTT [3]: 22.9 s
Bas [3]: 0%
Eos [3]: 0.8%
Fbg [3]: 349.4 mg/dL
Ht [3]: 43.2%
MCH [3]: 20.8 pg
MCHC [3]: 31%
MCV [3]: 67.3 fL
Mono [3]: 1.8%
PT [3]: 16.3 s
Plat [3]: 127.1 x10_4/uL
RBC [3]: 644 x10_4/ul
Ret [3]: 8.8%
WBC [3]: 68.1 x10_2/uL
KIDNEY_L [3]: 0.9 g
KIDNEY_R [3]: 1 g
KIDNEY_TOTAL [3]: 1.9 g
LIVER [3]: 7.8 g
ALP [3]: 1777.2 IU/L
AST [3]: 61.6 IU/L
BUN [3]: 13.2 mg/dL
CRE [3]: 0.2 mg/dL
Ca [3]: 11 mg/dL
Cl [3]: 114.4 meq/L
DBIL [3]: 0 mg/dL
GLC [3]: 175 mg/dL
IP [3]: 9.7 mg/dL
K [3]: 3.8 meq/L
LDH [3]: 182.6 IU/L
Na [3]: 139 meq/L
PL [3]: 122.4 mg/dL
RALB [3]: 3.5 g/dL
TBIL [3]: 0.026 mg/dL
TC [3]: 72.4 mg/dL
TG [3]: 13.8 mg/dL
TP [3]: 6.1 g/dL
gamma-GTP [3]: 1.4 IU/L
TERMINAL_BW [4]: 205.9 g
APTT [4]: 21.2 s
Bas [4]: 0%
Eos [4]: 1%
Fbg [4]: 349 mg/dL
Ht [4]: 40.8%
MCH [4]: 20.9 pg
MCV [4]: 62.9 fL
Mono [4]: 2%
PT [4]: 16.8 s
Plat [4]: 132.1 x10_4/uL
RBC [4]: 649.2 x10_4/ul
Ret [4]: 8.1%
WBC [4]: 101.2 x10_2/uL
KIDNEY_L [4]: 1 g
KIDNEY_R [4]: 1 g
KIDNEY_TOTAL [4]: 1.9 g
LIVER [4]: 8.5 g
ALP [4]: 1929.2 IU/L
AST [4]: 53.6 IU/L
BUN [4]: 21.6 mg/dL
CRE [4]: 0.2 mg/dL
Ca [4]: 10.8 mg/dL
Cl [4]: 114.4 meq/L
DBIL [4]: 0 mg/dL
GLC [4]: 189.6 mg/dL
IP [4]: 7.7 mg/dL
K [4]: 3.6 meq/L
LDH [4]: 222.4 IU/L
Na [4]: 142.2 meq/L
PL [4]: 136.2 mg/dL
RALB [4]: 3.2 g/dL
TBIL [4]: 0.016 mg/dL
TC [4]: 86.4 mg/dL
TG [4]: 44.6 mg/dL
